Laboratory results: ChEMBL document CHEMBL3507680, “University of Dundee, Gates Library screen for HepG2 cell viability”

assay: Human HepG2 cell viability assay in 384 well format; assay type: toxicity, cell-based; design: dose 125 nL, time 70.5 hour; concentration not given beside the values; details: HepG2 cells, read-out: Inhibition

| SMILES | cytotoxicity at 70.5 h [%] |
| --- | --- |
| CN(C)C(=O)CNC(=O)c1cc2c(s1)CCN2S(C)(=O)=O | -10.7 |
| Cc1cc(CN2CCN(CC(O)c3ccc(C)c(C)c3)CC2)no1 (stereo unspecified) | -7.74 |
| c1cc(-c2nc3c(c(NCCc4c[nH]cn4)n2)CCNCC3)ccn1 | 5.61 |
| CC(C)CN1C(=O)CO[C@@H]2CN(C(=O)N3CCOCC3)C[C@H]21 | -2.58 |
| CC(C)(C)C(=O)N1CCC2(COCc3cnc(N4CCOCC4)nc32)C1 (stereo unspecified) | -19.1 |
| CN(C(=O)CN1CCCC1c1cnn(C)c1)C(C)(C)C#N (stereo unspecified) | 1.19 |
| Cc1cnn(CC2CCN(CC(O)Cn3cccn3)CC2)c1 (stereo unspecified) | -6.24 |
| O=S(=O)(CC1CCOCC1)NCc1ccnc(O)c1 | 10.4 |
| COC(=O)c1oc(CNC(C)(C)CO)cc1C | -5.24 |
| O=C1NCC2(CCCN(Cc3ccc(Cl)s3)C2)Oc2ccccc21 (stereo unspecified) | -12.5 |
| Cc1cc(C)c2c(N3CCC(C(=O)N4CCOCC4)CC3)ncnc2n1 | 20.2 |
| CC(C)c1cc(C(=O)N[C@@H]2CC[C@@H](Oc3ccccc3)[C@@H]2O)on1 | -3.21 |
| CN(Cc1cccc(O)c1)C(=O)c1ccc(CCC(C)(C)O)cc1 | 0.182 |
| CNC(=O)NCC(CO)Cc1ccccc1OC(F)(F)F (stereo unspecified) | -5.84 |
| CNC(=O)c1ccc(CN(C)C(=O)Nc2nnc(C(C)C)s2)cc1 | 2.68 |
| O=C(N[C@@H]1CCN(C(=O)c2ccc(F)cc2Cl)C[C@H]1O)c1ccccn1 | -6.49 |
| O=C1NCCCc2[nH]c(C3CCN(C(=O)C4CC4)CC3)nc21 | 11.6 |
| COCc1cn(C[C@H]2C[C@@H]3CCN2C[C@@H]3C(=O)N2CCOCC2)nn1 | -3.96 |
| Cc1cc(C(=O)N2CCC3(CC2)C(=O)N(C)CCN3CC2CC2)c(C)o1 | -2.24 |
| CC(C)c1nccn1-c1cncc(C2CCCN(C3CCCCC3)C2)n1 (stereo unspecified) | -0.366 |
| O=C1CC(C(=O)Nc2nnc(-c3cccs3)[nH]2)c2ccccc2N1 (stereo unspecified) | -2.83 |
| CC(C)(C)OC(=O)N1CCC(C(=O)NCc2ccccc2)C1 (stereo unspecified) | 7.59 |
| CC(C)c1cc(CNC(=O)Nc2cc(F)cc(N3CCCC3)c2)on1 | 17.1 |

| SMILES | cytotoxicity at 70.5 h [%] |
| --- | --- |
| CN(C)C(=O)CN1CC[C@H]2CN(S(C)(=O)=O)C[C@@H]2C1=O | -3.84 |
| Cc1cccc(CN2C[C@@H]3COC[C@]3(CNC(=O)C3CC3)C2)c1 | -9.63 |
| CC(C(=O)NC(N)=O)N1CCN(c2ccc(C#N)cc2F)CC1 (stereo unspecified) | -19.1 |
| CCn1nc(CC(C)C)cc1C(=O)N1CCCC(C#N)C1 (stereo unspecified) | 0.732 |
| Cc1noc(C(C)C)c1C(=O)NCCCN1CCCCCC1=O | -7.03 |
| CN(Cc1ccc2c(c1)OCO2)Cc1nc(-c2ccco2)no1 | -10.9 |
| O=C(c1cccc2ncccc12)N1CCCC(n2ccnc2)C1 (stereo unspecified) | -2.04 |
| CSC1(CNC(=O)NC(C)c2ccc(F)cc2)CCOCC1 (stereo unspecified) | 6.41 |
| CCN(CCN(C)C)c1nc(CCN)nc2sc(C)c(C)c12 | 8.66 |
| COC1COC2(CCN(Cc3ccc4ccccc4n3)CC2)C1 (stereo unspecified) | -12.9 |
| O=C1[C@H]2CN(Cc3ccoc3)C[C@H]2CN1Cc1cccnc1 | -11.8 |
| COc1ncc(C)cc1NC(=O)COc1ccccc1F | 11.7 |
| Cc1cc(C)n(CC2CCCN2C(=O)c2cnn(C)c2C2CC2)n1 (stereo unspecified) | -11.8 |
| Cc1ccc(NC(=O)NCCCn2nc3ccccn3c2=O)cc1 | -0.527 |
| c1ncn(Cc2cn3c(n2)CN(CC2CCCCC2)CC3)n1 | -3.74 |
| CN(Cc1ccncc1)Cc1nccn1Cc1ccccc1 | -5.12 |
| O=C(Cc1ccccn1)N1CCN(C(=O)c2cccc3[nH]ncc23)CC1 | 1.92 |
| Cn1ccnc1C(=O)N[C@@H]1CN(CC2CCOCC2)[C@@H]2CCCO[C@@H]21 | -2.65 |
| Cc1cc(F)c2c(c1)CCCN2C(=O)c1cncc(Br)c1 | 0.703 |
| CS(=O)(=O)c1cccc(Cl)c1C(=O)NCCN1C(=O)CCC1=O | 16.3 |
| Cn1nc(C2CCCN2)c2c(C(=O)NC3CC3)cc(C3CC3)nc21 (stereo unspecified) | 20 |
| Cc1ncncc1C(=O)N1CCCN(Cc2ncc(Cl)n2C)CC1 | -1.21 |
| Cc1cc(C)nc(NC2CCc3nc(C)nn3C2)n1 (stereo unspecified) | -5.94 |

| SMILES | cytotoxicity at 70.5 h [%] |
| --- | --- |
| O=C1CCCN1Cc1nnc2n1CCN(Cc1ccoc1)CC2 | 30 |
| CCCN1CCC(CC(=O)NCCc2nc(C)cc(C)n2)CC1 | -4.92 |
| CCS(=O)(=O)N1CCc2ncnc(OC)c2CC1 | -5.9 |
| O=C1CCNc2ccccc2CN1Cc1ccco1 | -6.23 |
| COCCN1C(=O)C[C@H]2[C@H]1CCN2C(=O)c1ccc[nH]1 | -10.2 |
| N#Cc1cccc(CN2C[C@@H](F)[C@@H](OCc3nc4ccccc4[nH]3)C2)c1 | -2.32 |
| O=C(CCC1CCCC1)N1CCCC(c2ncc3c(n2)CCNC3)C1 (stereo unspecified) | -1.37 |
| CC(CO)Nc1ccc(-c2nc(Cc3ccc(F)cc3)no2)cn1 (stereo unspecified) | -2.07 |
| CCN1CC(CN2CCOCC2)Oc2ncccc2C1=O (stereo unspecified) | 13.2 |
| CS(=O)(=O)NCC1CCCN(C(=O)COCC(F)(F)F)C1 (stereo unspecified) | -21 |
| Cc1cnn(C2CCCN(C(=O)CCCNc3ncccn3)C2)c1 (stereo unspecified) | -14.5 |
| O=C(c1ccncc1)N1CCC(Oc2cccc(C(F)(F)F)c2)CC1 | -5.79 |
| CN(C)Cc1ccc(CNC(=O)NCC2(C)CCCS2)cc1 (stereo unspecified) | 7.26 |
| CCCn1nc(C2CCNCC2)n(Cc2ccccc2)c1=O | -7.28 |
| CN(C)c1ccccc1C(=O)N1C[C@@H](CN2CCC(O)CC2)[C@@H](CO)C1 | 1.37 |
| Cc1ccc(CN(C)C(=O)CNC(C)(C)c2noc(C(C)(C)C)n2)o1 | -0.348 |
| CN1CCC2(CC1)CNC(=O)c1ccccc1O2 | -13.6 |
| Cn1cc(CN2C[C@@H]3COC[C@]3(COc3ccc(C#N)cn3)C2)cn1 | -10.6 |
| O=C(c1ccc2nccnc2c1)N1CCN(CCO)[C@@H]2CS(=O)(=O)C[C@@H]21 | -9.05 |
| CCN1CCN(c2cncc(Cl)n2)CC1 | 26.6 |
| CC(C)N(C)Cc1nnc2n1CCN(S(=O)(=O)C1CC1)CC2 | -0.847 |
| O[C@@H]1C[C@@H](c2nc(-c3ccccc3)no2)N(CC2CCCCC2)C1 | -12.5 |
| COCCOc1ncccc1C(=O)N1CCCCC1c1nccs1 (stereo unspecified) | -3.02 |

| SMILES | cytotoxicity at 70.5 h [%] |
| --- | --- |
| CN(C)C(Cn1ccnc1-c1ccccc1C(=O)O)c1ccccc1Cl (stereo unspecified) | 10.5 |
| CCNc1nc(-c2cccnc2)c(-c2ccnc(NCCO)n2)s1 | -13.3 |
| Cc1cnc(N2C[C@@H]3[C@@H](C(=O)NC(C)C)CCS(=O)(=O)[C@@H]3C2)nc1 | 18 |
| O=C1CC2(CNCCN(C(=O)Nc3ccccc3)C2)CN1 (stereo unspecified) | -9.89 |
| CN(Cc1ccco1)[C@@H]1CN(Cc2cnn(C)c2)[C@@H]2CCCO[C@H]12 | -12 |
| OCCN1CCC(CNCc2cn(-c3ccccc3)nn2)CC1 | -12.5 |
| Cn1ccc2ccc(C(=O)N3CCN(C(=O)N4CCOCC4)CC3)cc21 | 23.3 |
| CCc1ccc2nc(C)cc(C(=O)N[C@@H]3CNC[C@H]3O)c2c1 | 25.1 |
| CN(Cc1ccccc1)C1(C(=O)O)Cc2ccccc2C1 | -1.88 |
| Cc1nc(CO[C@H]2CN(Cc3ccccn3)[C@@H]3CCCO[C@H]23)cs1 | 6.92 |
| Cc1ccc2c(c1)c(CNC(=O)C1CCN(C(=O)C3CC3)CC1)nn2C | -3.75 |
| O=C1C(NCc2nnc3n2CCCC3)CCN1CC(F)(F)F (stereo unspecified) | 20.6 |
| CC(C)c1nnc(NC(=O)CCc2cc(F)ccc2F)[nH]1 | -16.3 |
| COc1ccnc(N(C)Cc2csc(C)n2)n1 | -6.22 |
| CC(C)CC(=O)N1CCCCC(NC(=O)CCc2cccnc2)C1 (stereo unspecified) | -1.04 |
| CCN(C)c1ccc(C(=O)N(CCOC)Cc2ccccn2)cc1 | 14.7 |
| CC(C)c1nc(CN(C)Cc2ccc(O)c(C(=O)O)c2)cs1 | -4.7 |
| NC(=O)Cn1c(CO)cnc1SCC(=O)NCc1ccccc1 | 13.6 |
| O=C(C1CCC1)N1CCOc2cccc(F)c21 | -9.1 |
| CC(=O)NCCNC(=O)CN1CCCC1Cn1nc(C)nc1C (stereo unspecified) | -16.9 |
| O=C(NCC1CC1)[C@@H]1C[C@@H]2CCN(Cc3ccoc3)C[C@@H]2O1 | 2.93 |
| COc1ccc(Cl)cc1NCC(=O)NCc1cccnc1OC | 17.6 |
| O=C(NCc1cccc(N2CCCCC2=O)c1)[C@@H](O)c1ccccc1 | -7.54 |

| SMILES | cytotoxicity at 70.5 h [%] |
| --- | --- |
| OC(COc1ccc2c(c1)OCO2)CN1CC(n2cccn2)C1 (stereo unspecified) | -3.37 |
| CNC(=O)N1CCC(NC(=O)c2cnn(C)c2)CC1 | -11.2 |
| Cc1cc(N2CCCN(Cc3ccc(C)o3)CC2)ccn1 | -3.18 |
| Cc1cc(C)c(C(=O)N2CCOCC2c2c(C)n[nH]c2C)o1 (stereo unspecified) | -6.5 |
| O=C(Nc1nccs1)N1CCCC(N2CCNC2=O)C1 (stereo unspecified) | 1.93 |
| Cn1ncc2c1CN(Cc1ccccc1F)CC2COCC1CC1 (stereo unspecified) | 23.7 |
| O=C(c1cccs1)N1CCc2ncc(Cn3cncn3)n2CC1 | -13.5 |
| O=C(C1CC(=O)N(c2ccccc2)C1)N1CCC2(CC1)OCCO2 (stereo unspecified) | 5.21 |
| Cc1ccc2c(c1)C1(CCNCC1)CC2NCCO (stereo unspecified) | -1.58 |
| CN(C)C[C@]12COC[C@H]1CN(Cc1ccccn1)C2 | -8.89 |
| CNC(=O)c1cnc2n1CCN(C(=O)Cc1ccccn1)C2 | -13.8 |
| COc1ccc(CN2CCN(CC3CC3)[C@@H]3CS(=O)(=O)C[C@@H]32)cc1C | 10.6 |
| Clc1cc(NCc2nccs2)nc2[nH]ccc12 | -30.7 |
| Fc1cccnc1O[C@@H]1CN(Cc2ccco2)[C@@H]2CCCO[C@@H]21 | -12.4 |
| N#Cc1ccc(N2CCCN(CCCn3cncn3)CC2)cc1 | -0.762 |
| CC(=O)N1CCN(CCNc2ncc(Br)cc2C)CC1 | -1.98 |
| O=C(C[S+]([O-])c1ccc(F)c(F)c1)NCc1cc(F)cc(F)c1 (stereo unspecified) | -2.62 |
| CC(C)c1n[nH]c(C2CN(C(=O)c3ncoc3C(C)C)CCO2)n1 (stereo unspecified) | -2.71 |
| CN(C)C(=O)c1cn[nH]c1C1CCCN1Cc1cncn1C (stereo unspecified) | -0.0963 |
